melting point | SMILES
167 to 168 °C | CCc1nnc(CCc2ccc(NC(=O)/C=C/c3cnn(C)c3-c3ccc(F)cc3)cc2)o1 [Example 88, (2E)-N-{4-[2-(5-Ethyl-1,3,4-oxadiazol-2-yl)ethyl]phenyl}-3-[5-(4-fluorophenyl)-1-methyl-1H-pyrazol-4-yl]acrylamide]
226 to 227 °C | Cn1ncc(/C=C/C(=O)Nc2ccc(Cc3nc(C(=O)O)cs3)cc2)c1-c1ccc(F)cc1 [Example 131, 2-[4-({(2E)-3-[5-(4-fluorophenyl)-1-methyl-1H-pyrazol-4-yl]prop-2-enoyl}amino)benzyl]-1,3-thiazole-4-carboxylic acid]
150 to 152 °C | Cn1nnnc1SCc1ccc(NC(=O)/C=C/c2cnn(C)c2-c2ccc(F)cc2)cc1 [Example 214, (2E)-3-[5-(4-Fluorophenyl)-1-methyl-1H-pyrazol-4-yl]-N-(4-[[(1-methyl-1H-tetrazol-5-yl)thio]methyl]phenyl)acrylamide]
212 to 214 °C | COP(=O)(Cc1ccc(NC(=O)/C=C/c2cnn(C)c2-c2ccc(Br)cc2)cc1)OC
192 to 193 °C | Cc1nc(Cc2ccc(NC(=O)/C=C/c3cnn(C)c3-c3ccc(F)cc3)cc2)cs1 [Example 100, (2E)-3-[5-(4-Fluorophenyl)-1-methyl-1H-pyrazol-4-yl]-N-{4-[(2-methyl-1,3-thiazol-4-yl)methyl]phenyl}acrylamide]
231 to 232 °C | Cn1ncc(/C=C/C(=O)Nc2ccc(Cn3cc4ccccc4n3)cc2)c1-c1ccc(F)cc1 [Example 178, (2E)-3-[5-(4-Fluorophenyl)-1-methyl-1H-pyrazol-4-yl]-N-[4-(2H-indazol-2-ylmethyl)phenyl]acrylamide]
178 to 179 °C | Cn1ncc(/C=C/C(=O)Nc2ccc(Cn3nccn3)cc2)c1-c1ccc(F)cc1 [Example 196, (2E)-3-[5-(4-Fluorophenyl)-1-methyl-1H-pyrazol-4-yl]-N-[4-(2H-1,2,3-triazol-2-ylmethyl)phenyl]acrylamide]
150 to 151 °C | CCC(O)(CC)Cc1ccc(NC(=O)/C=C/c2cnn(C)c2-c2ccc(F)cc2)cc1 [Example 115, (2E)-N-[4-(2-Ethyl-2-hydroxybutyl)phenyl]-3-[5-(4-fluorophenyl)-1-methyl-1H-pyrazol-4-yl]acrylamide]
190 to 191 °C | CCc1nc(CCc2ccc(NC(=O)/C=C/c3cnn(C)c3-c3ccc(F)cc3)cc2)cs1 [Example 90, (2E)-N-{4-[2-(2-Ethyl-1,3-thiazol-4-yl)ethyl]phenyl}-3-[5-(4-fluorophenyl)-1-methyl-1H-pyrazol-4-yl]acrylamide]
187 to 188 °C | CCOP(=O)(Cc1ccc(NC(=O)/C=C\c2cnn(C)c2-c2ccc(OC)cc2)cc1)OCC
154 to 155 °C | CCOP(=O)(Cc1ccc(NC(=O)/C=C/c2cnn(C)c2-c2ccc(F)cc2)c(C)c1)OCC
271 to 272 °C | CCC(=O)NCc1ccc(NC(=O)/C=C/c2cnn(C)c2-c2ccc(F)cc2)cc1 [Example 138, (2E)-3-[5-(4-fluorophenyl)-1-methyl-1H-pyrazol-4-yl]-N-{4-[(propionylamino)methyl]phenyl}acrylamide]
174 to 175 °C | CCc1coc(Cc2ccc(NC(=O)/C=C/c3cnn(C)c3-c3ccc(F)cc3)cc2)n1 [Example 98, (2E)-N-{4-[(4-Ethyl-1,3-oxazol-2-yl)methyl]phenyl}-3-[5-(4-fluorophenyl)-1-methyl-1H-pyrazol-4-yl]acrylamide]
210 to 211 °C | Cn1ncc(/C=C/C(=O)Nc2ccc(Cn3ncnn3)cc2)c1-c1ccc(F)cc1 [Example 198, (2E)-3-[5-(4-Fluorophenyl)-1-methyl-1H-pyrazol-4-yl]-N-[4-(2H-tetrazol-2-ylmethyl)phenyl]acrylamide]
229 to 231 °C | CCOP(=O)(Cc1ccc(NC(=O)/C=C/c2cnn(C)c2-c2cccc3ccccc23)cc1)OCC
